Test results published in paper PMC10222512, “Thiocarbonyl Derivatives of Natural Chlorins: Synthesis Using Lawesson’s Reagent and a Study of Their Properties” (Molecules, 2023).
Entries after “also recorded” stand apart in the source; their conditions may differ. Like-named read-outs stand apart in the source and are kept apart here.

What was measured:
[1] = Chemical stability in lysate of S37 sarcoma cells (Qy band intensity); assay type: physicochemical; settings: Cell lysate S37 (pH = 7.8)
Procedure: (§1) The chemical stability of compounds 4 and 7 was also studied in the lysate of S37 sarcoma cells (pH = 7.8), as well as in the cell culture medium at different pH values. The stability was assessed by the change in the intensity of the Qy bands as described above.

[2] = test system: S37 murine sarcoma cell line; assay: Dark cytotoxicity, MTT assay; assay type: cell-based; settings: S37 sarcoma cells, 72 h incubation, dark
Procedure: (§2) To estimate cytotoxicity, cells were incubated with the substances for 72 h under dark conditions in a CO2 incubator.
(§3) Cell survival was estimated using the colorimetric MTT test (24 and 72 h after exposure), which is based on the ability of dehydrogenases in living cells to convert yellow water-soluble 3-(4-5-dimethyl-tetrazolyl-2)-2,5-diphenyltetrazolium bromide to blue crystals of formazan, whose amount is measured spectrophotometrically.

[3] = Dark cytotoxicity, MTT assay; assay type: cell-based, murine; settings: mouse, S37 murine sarcoma cells; S37 cells; 72 h incubation of compounds with cells, no irradiation, MTT
Procedure: as §2, §3

[4] = test system: S37 murine sarcoma cell line; assay: Photoinduced (combined) cytotoxicity, MTT assay after irradiation; assay type: cell-based; settings: S37 cells; for IC50: Mus musculus, S37, light or radiation study, 4 h PS incubation
Procedure: To estimate the combined effect (photoinduced and chemocytotoxic) of compound (4) and platinum complex (7), a two-step experiment was designed: incubation of cells with PS for 4 h and irradiation and subsequent incubation for 48 or 72 h followed by estimation of cell survival by the MTT assay.
The S37 murine sarcoma cell line (collection of the N.N. Blokhin Research Institute of Oncology) was used to estimate photoinduced activity and cytotoxicity.
Cells were cultured in DMEM medium (PanEco, Russia) with addition of 2 mM L-glutamine (PanEco, Moscow, Russia) and 10% fetal calf blood serum (FCS) (Corning, New York, NY, USA) in 25 cm^2 culture vials (Corning, USA) at 37 °C in a humid atmosphere containing 5% carbon dioxide. Upon passivation, the Versene solution (PanEco, Russia) was used to remove the cells from the substrate. For in vitro studies, cells of the 3rd and 4th passages were used with an optimal seeding concentration of 6 × 10^4 cells/mL.
The concentrations of the solutions obtained were 0.6 mg/mL for compound (4) and 0.1 mg/mL for compound (7). All the volumes obtained were filtered through a Millipore membrane filter with a pore size of 0.22 μm. Next, the samples were diluted in 24-well plates (Corning, USA) on the cell-culturing medium. The final concentration of the substances ranged from 32 ng/mL to 20 μg/mL.
To perform the experiments, S37 tumor cells were seeded into 96-well plates in the amount of 6 × 10^3 cells per well in a 100 μL volume. Exposure was performed in the exponential phase of cell growth 24 h after seeding. Solutions of compounds in the complete culture medium were added to the wells at final concentrations of 32 ng/mL to 20 μg/mL, in triplicate. The time of cell incubation with compounds before irradiation was 4 h. The culture medium was used as the blank. Light exposure was performed with a halogen lamp through a KS-10 broadband filter (λ > 620 nm). The light dose was 10 J/cm^2. After light exposure, the plates with cells were placed in a CO2 incubator for 24, 48, or 72 h.
Cell survival was estimated using the colorimetric MTT test (24 and 72 h after exposure), which is based on the ability of dehydrogenases in living cells to convert yellow water-soluble 3-(4-5-dimethyl-[…]-2)-2,5-diphenyltetrazolium bromide to blue crystals of formazan, whose amount is measured spectrophotometrically.
Before the test, cells were washed from cytotoxic agents. Then, 0.5% solution of 3-(4,5-dimethylthiazolyl-2)-2,5-diphenyltetrazolium bromide was added to the wells and the system was incubated for 3 h under standard conditions. After incubation, the medium with the MTT-reagent was removed and formazan crystals were dissolved for 10 min with dimethyl sulfoxide. Optical density was measured on a Multiscan FC multichannel plate photometer (Thermo scientific) at 550 nm.
The growth inhibition (GI) of cells in a culture was calculated using the following formula:GI(%) = [ODk − ODo/ODk)] × 100%, where ODo is the optical density of formazan in the test wells and ODk is the optical density of formazan in the control wells.
Quantitative parameters were calculated using the results of three independent tests.

[5] = UV-Vis absorption and fluorescence spectra; assay type: physicochemical; settings: excitation at 550 nm, dichloromethane
Procedure: Because the pigments noted above are photoactive compounds, it was important to determine the effect of the sulfur atom on their spectral characteristics.
Absorption and fluorescence spectra were recorded on Shimadzu UV1800 UV/VIS (Shimadzu, Duisburg, Germany) and Shimadzu RF-5301 (Shimadzu, Duisburg, Germany) spectrophotometers in quartz cells (0.4 × 1.0 cm) with an optical path length of 1 cm (spectral slit width 1 nm), using dichloromethane, acetone, and water as the solvents. Absorption spectra were recorded in the range of 350–750 nm. Fluorescence spectra were recorded in the range of 600–800 nm (excitation wavelength 550 nm), using dichloromethane, acetone, and water as the solvents. The fluorescence quantum yield was determined by the relative method. A solution of purpurin-18 in toluene was used as the standard. Both ^1H and ^13C NMR spectra were recorded on a Bruker DPX 300 spectrometer (Bruker, Alzenau, Germany). NMR samples were prepared in d6-acetone and CDCl3. Matrix-assisted laser desorption/ionization (MALDI) mass spectra were recorded on a Bruker Ultraflex TOF/TOF spectrometer (Bruker, Alzenau, Germany), with 2,5-dihydroxybenzoic acid as the matrix. Elemental analysis was performed on a Vario Micro Cube analyzer (Elementar, Berlin, Germany).

[6] = Chemical stability in cell culture medium at different pH (Qy band intensity); assay type: physicochemical
Procedure: as §1

With `C=Cc1c(C)c2cc3nc(c4c5[nH]c(cc6nc(cc1[nH]2)C(C)=C6CC)c(C)c5C(=O)C4)[C@@H](CCC(=O)OC)[C@@H]3C` [Compound 4, pyropheophorbide a methyl ester, reference compound] as the compound, how does the “Content, %” value ([1]; 0 min) read?
The value was 100%.

What about the “Intensity at 666 nm” value ([1]; 0 min) of the same compound?
Its value is 0.9538.

And the “Content, %” value ([1]; 4 h)?
Its value is 91%.

What about the “Intensity at 666 nm” value ([1]; 4 h) of the same compound?
Its value is 0.8679.

And the “Content, %” value ([1]; 24 h)?
Its value is 82%.

And the “Intensity at 666 nm” value ([1]; 24 h)?
Its value is 0.7821.

And the “Content, %” value ([1]; 72 h)?
Its value is 76%.

And the “Intensity at 666 nm” value ([1]; 72 h)?
Its value is 0.7249.

What about the “cytotoxic effect without light irradiation (in words)” value [2] of the same compound?
Its value is “no cytotoxic effect on cells; also recorded: does not have a pronounced cytotoxicity”.

What about the IC50 at 72 h [3] of the same compound?
Its IC50 at 72 h is over 36.4 µM.

And the IC50 ([4]; irradiation at 10 J/cm^2, MTT after 24 h, read-out: IC50, Photoinduced cytotoxicity)?
The IC50 was 4.198 ± 0.013 µM.

And the IC50 ([4]; irradiation at 10 J/cm^2, MTT after 48 h, read-out: IC50, Combined cytotoxicity)?
The IC50 was 4.076 ± 0.011 µM.

And the IC50 ([4]; irradiation at 10 J/cm^2, MTT after 72 h, read-out: IC50, Combined cytotoxicity)?
The IC50 was 4.023 ± 0.013 µM.

What about the “photoinduced activity, times lower than that of the platinum complex” value ([4]; versus platinum complex 7) of the same compound?
The value was 8.8 times.

And the fluorescence maximum [5]?
The fluorescence maximum was 684 nm.

And the “Content, %” value ([6]; pH 4, 0 min)?
Its value is 100%.

And the “Intensity at 666 nm” value ([6]; pH 4, 0 min)?
The value was 0.9538.

What about the “Content, %” value ([6]; pH 4, 4 h) of the same compound?
Its value is 70%.

What about the “Intensity at 666 nm” value ([6]; pH 4, 4 h) of the same compound?
Its value is 0.6677.

And the “Content, %” value ([6]; pH 4, 24 h)?
The value was 60%.

What about the “Intensity at 666 nm” value ([6]; pH 4, 24 h) of the same compound?
The value was 0.5723.

And the “Content, %” value ([6]; pH 4, 72 h)?
Its value is 58%.

What about the “Intensity at 666 nm” value ([6]; pH 4, 72 h) of the same compound?
Its value is 0.5532.

What about the “Content, %” value ([6]; pH 7, 0 min) of the same compound?
Its value is 100%.

And the “Intensity at 666 nm” value ([6]; pH 7, 0 min)?
The value was 0.9538.

And the “Content, %” value ([6]; pH 7, 4 h)?
Its value is 93%.

And the “Intensity at 666 nm” value ([6]; pH 7, 4 h)?
The value was 0.887.

And the “Content, %” value ([6]; pH 7, 24 h)?
The value was 87%.

And the “Intensity at 666 nm” value ([6]; pH 7, 24 h)?
The value was 0.8298.

And the “Content, %” value ([6]; pH 7, 72 h)?
Its value is 79%.

What about the “Intensity at 666 nm” value ([6]; pH 7, 72 h) of the same compound?
Its value is 0.7535.

What about the “Content, %” value ([6]; pH 9, 0 min) of the same compound?
The value was 100%.

What about the “Intensity at 666 nm” value ([6]; pH 9, 0 min) of the same compound?
Its value is 0.9538.

And the “Content, %” value ([6]; pH 9, 4 h)?
Its value is 85%.

What about the “Intensity at 666 nm” value ([6]; pH 9, 4 h) of the same compound?
Its value is 0.8107.

What about the “Content, %” value ([6]; pH 9, 24 h) of the same compound?
The value was 78%.

And the “Intensity at 666 nm” value ([6]; pH 9, 24 h)?
Its value is 0.744.

And the “Intensity at 666 nm” value ([6]; pH 9, 72 h)?
The value was 0.7058.
